Earlier results as cited in paper PMC11920646 (Frontiers in Pharmacology, 2025).

Experiments:
[1] = humans ref Ripa et al., 2018; cited from earlier work
[2] = test system: IFN-γ release in human whole blood; set-up: method as in Hu et al., 2011; conditions: at concentrations each of 100–1000 nM ref Hu et al., 2011; cited from earlier work
[3] = test system: IL-6 release in A549 cells; set-up: method as in Hu et al., 2011; conditions: dagrocorat study ref Hu et al., 2011; cited from earlier work

Row | SMILES | t½ [1] [h] | inhibition of IFN-γ release in human whole blood [2] | inhibition of IL-6 release in A549 cells [3] [%]
1 | CC(C)[C@H](NC(=O)C(C)(F)F)[C@H](Oc1ccc2c(cnn2-c2ccc(=O)n(C)c2)c1)c1ccccc1 [mizacorat] | ~5 | – | –
2 | Cc1ncccc1NC(=O)c1ccc2c(c1)CC[C@@H]1C[C@@](O)(C(F)(F)F)CC[C@@]21Cc1ccccc1 [dagrocorat] | – | 60–70% | 78
